Laboratory results published in patent US5434136A, “Treatment of motility disorders with a GNRH analog” (priority 1992, dated 1995).
Read-outs that look alike come from different tables or passages of the source.

Legend:
[1] = test system: functional bowel disorders; assay type: in vivo, human
Source text: The symptoms of the two patients with GMD were abdominal pain located in the right upper quadrant and epigastrium, daily nausea, and intermittent vomiting exacerbated by eating and by the luteal phase of the menstrual cycle. The two patients with IIHVN had abdominal pain, nausea, and intermittent vomiting, and also had urinary tract involvement consisting of pain and a decrease in urination. The fifth patient had Roux-en-Y syndrome (defined as epigastric-to-right-upper-quadrant pain, nausea, and vomiting increased by eating) after surgical construction of a gastro-jejunal Roux-en-Y anastomosis. The mean duration of these symptoms was eight years (Table 1). All subjects had undergone extensive blood testing, several upper gastrointestinal x-ray series, barium enemas, esophagogastroduodenoscopy, endoscopic retrograde cholangiopancreatography, gastric emptying tests with radiolabeled meal, ultrasound of the abdomen, computerized axial tomography of the abdomen, and many other tests. The results of all tests were normal, except for prolonged gastric emptying in the patient with the Roux-en-Y Syndrome. Because of their intractable clinical problem, these patients were included in the test protocol with leuprolide acetate. Protocol: The symptoms of each patient were first assessed, and their tests evaluated. Each patient kept a daily symptom diary. Leuprolide acetate was obtained by prescription as Lupron (TAP pharmaceuticals, Abbott Labs, North Chicago, Ill.). One multi-use vial of Lupron comprised of […] Leuprolide Acetate. A daily dose of 0.5 mg ([…]) was self-administered by subcutaneous injection, for a period of three months. Each patient was examined at 0, 1 and 3 months of treatment. After the third month, leuprolide was continued as previously, and estrogen (0.625 mg orally) and calcium (1000 mg orally) were also administered. At the end of the sixth month, a two week withdrawal period from leuprolide acetate ensued. During this period a 10 mg oral dose of progesterone was given to pre-menopausal patients, to assess recurrence of symptoms and to induce menses. Post-menopausal women were not treated with progesterone during the two week withdrawal period. This procedure was then continued for an additional six months, with drug withdrawal and progesterone given every three months to induce a menstrual cycle. Serum estradiol, progesterone, FSH, and LH were quantitated by radioimmunoassay prior to the initiation of leuprolide treatment, and at three months post treatment initiation. The procedure of example 1 was followed with additional patients. […] One patient listed as a failure elected to withdraw from the program after four weeks of treatment. One patient after recovering from the symptoms of their autonomic neuropathy expired from a massive myocardial infarction (Responded--expired). These patients were treated with Leuprolide acetate following the protocol established in Example 1.

[2] = test system: functional bowel disease (IIHVN), ovaries removed; test: Effective dose of leuprolide acetate in patients having previous ovariectomy; assay type: in vivo, human
Source text: Two patients discussed in Example 1 were women who had undergone surgery for removal of their ovaries. The first patient, Number 3, had undergone this surgery approximately two years prior to beginning Leuprolide acetate treatment. The second patient, Number 4, underwent ovariectomy 18 months […] beginning treatment with Leuprolide Acetate. In both cases, the effective dose of leuprolide acetate was higher than the effective dose required by patients who had not had ovaries removed.

[3] = test system: migrating motor complexes, jejunum; test: Leuprolide acetate in ovariectomized female rats: migrating motor complexes; assay type: in vivo, ovariectomized female Wistar rats; conditions: for Migrating Motor Complexes, L-Fasted / Migrating Motor Complexes, L-Fed: ovariectomized
Experimental: Eleven female Wistar rats weighing between 175 and 250 g were each implanted with four bipolar Ag/AgCL electrodes (the preparation of which is described in: Mathias, Am. J. Physiology, 249:[…]-[…], 1981). The electrodes were sewn 5 cm from the Ligament of Trietz and 5 cm apart, onto the jejunal serosa. The number of migrating myoelectric complexes was recorded using a R-612 Dynograph (Sensor-Medics, Anaheim, Calif.). Rats were fasted for 36 hours prior to recording and feeding (no food, liberal water), and were housed in special cages to remove feces. After 36 hours of fasting, Migrating Motor Complexes (MMC) were recorded at a sensitivity of 0.2 mV/cm, 2.5 mm/sec paper speed, and a Time Constant of 1 for a duration of 2 to 4 hours. Immediately following the fasted recording session, the rats were fed 2 biscuits of Purina rat chow with simultaneous recording during feeding and continued for 4 hours. Female Wistar rats were ovariectomized and permitted to recover ten days. Bipolar Ag/AgCl electrodes were then implanted as described for example 4. Control MMC readings in the fasted and fed states were recorded prior to treatment with leuprolide acetate (Controls) as described in Example 4. Treatment with leuprolide acetate followed using doses in the range of 2 to 250 μg/100 g body weight. Fasted and fed recordings were obtained as described for Example 4.

end-stage scleroderma = test: Treatment of end stage scleroderma with leuprolide acetate; assay type: in vivo, human; conditions: Patient 6, 0.5 mg daily s.c.
Experimental: Patient number 6 was in end-stage scleroderma. They had been bed-ridden for approximately eight months, unable to retain food after eating, and was being maintained on total parental hyperalimentation (TPN) to keep up body weight and fluid and electrolyte balance for five months. This patient was treated with 0.5 mg Leuprolide acetate daily, by subcutaneous injection according to the protocol of example 1.

CCNC(=O)[C@@H]1CCCN1C(=O)[C@H](CCCNC(=N)N)NC(=O)[C@H](CC(C)C)NC(=O)[C@@H](CC(C)C)NC(=O)[C@H](Cc1ccc(O)cc1)NC(=O)[C@H](CO)NC(=O)[C@H](Cc1c[nH]c2ccccc12)NC(=O)[C@H](Cc1c[nH]cn1)NC(=O)[C@@H]1CCC(=O)N1 [Leuprolide acetate, leuprolide acetate]
Duration of therapy until symptom free ([1]; Patient 7): ≤ 8 weeks | Response ([1]; Patient 7, Pelvic Floor Dysfunction): symptom free | Response ([1]; Patient 7, Pelvic Floor Dysfunction, listed as leuprolide): Responded | Response ([1]; Patient 8, Chronic Intestinal Pseudo Obstruction, listed as leuprolide): Responded | Response ([1]; Patient 8, Chronic Intestinal Pseudo Obstruction, listed as leuprolide acetate): does not chronically experience severe symptoms | Hospital admissions since therapy was begun ([1]; Patient 8, before: at least one week per month in hospital): no hospital admissions | Response ([1]; Patient 9, Roux-en-Y-Syndrome): Responded | Response ([1]; Patient 10, Roux-en-Y-Syndrome, withdrew): Failure | Response ([1]; Patient 11, Chronic Intestinal Pseudo Obstruction, side effects): Failure | Response ([1]; Patient 12, Roux-en-Y-Syndrome, expired): Failure | Need for parental alimentation for weight control ([1]; Patient 13): no longer requires parental alimentation | Urination ([1]; Patient 13): improved | Response ([1]; Patient 13, Idiopathic Intestinal Hollow Visceral Myopathy/Neuropathy, protocol of example 1): improved dramatically | Response ([1]; Patient 13, Idiopathic Intestinal Hollow Visceral Myopathy/Neuropathy, protocol of example 1, listed as leuprolide): Responded | Response ([1]; Patient 14, Pelvic Floor Dysfunction): Failure | Need for parental supplementation ([1]; Patient 15): requires no parental supplementation | Response ([1]; Patient 15, Chronic Intestinal Pseudo Obstruction): steadily improved | Response ([1]; Patient 15, Chronic Intestinal Pseudo Obstruction, listed as leuprolide): Responded | Response ([1]; Patient 16, Roux-en-Y-Syndrome): relieved | Response ([1]; Patient 16, Roux-en-Y-Syndrome, listed as leuprolide): Responded | Body weight maintained under therapy ([1]; Patient 16, weight before 96 pounds): 115-118 pounds | Theophylline requirement for lung disease ([1]; Patient 17): smaller dose of Theophylline is now required | Response ([1]; Patient 17, Gastrointestinal Motor Dysfunction, protocol of example 1): abated | Response ([1]; Patient 17, Gastrointestinal Motor Dysfunction, protocol of example 1, listed as leuprolide): Responded | Pulmonary function tests ([1]; Patient 17, chronic obstructive lung disease): dramatic improvement | Response ([1]; Patient 18, Idiopathic Intestinal Hollow Visceral Myopathy/Neuropathy, protocol of example 1): all of their symptoms have improved except for their obstipation | Response ([1]; Patient 18, Idiopathic Intestinal Hollow Visceral Myopathy/Neuropathy, protocol of example 1, listed as leuprolide): Responded | Duration of therapy after which all symptoms had disappeared ([1]; Patient 19): 6 weeks | Response ([1]; Patient 19, Gastrointestinal Motor Dysfunction, protocol of example 1, listed as leuprolide): Responded | Course after the drug was discontinued ([1]; Patient 19, discontinued after six months of treatment): no recurrent disease | Response ([1]; Patient 20, Gastrointestinal Motor Dysfunction, protocol of example 1): symptom-free | Response ([1]; Patient 20, Gastrointestinal Motor Dysfunction, protocol of example 1, listed as leuprolide): Responded | Response ([1]; Patient 21, Gastrointestinal Motor Dysfunction): Responded | Swallowing and eating ([1]; Patient 22): now able to swallow and eat | Response ([1]; Patient 22, Gastrointestinal Motor Dysfunction, response seen after three weeks of therapy): dramatic response | Response ([1]; Patient 22, Gastrointestinal Motor Dysfunction, response seen after three weeks of therapy, listed as leuprolide): Responded | Need of opiates for pain ([1]; Patient 23): did not require opiates for pain | Response ([1]; Patient 23, Roux-en-Y-Syndrome): Responded | Response ([1]; Patient 23, Roux-en-Y-Syndrome, listed as Lupron): symptom free | Side effects leading to withdrawal from treatment ([1]; human, in vivo): bone pain | Number of patients who failed to respond ([1]; of the twenty-six treated to date): Four | Response of the majority of patients ([1]; twenty-six patients treated to date): full recovery | Daily dose needed to overcome symptoms ([2]; Patient 3, ovaries removed, initially 0.5 mg): 2.0 mg | Effective daily dose that relieved symptoms ([2]; Patient 4, post-ovariectomy): 2.0 mg | Sufficiency of daily dose of 0.5 mg ([2]; Patient 4, post-ovariectomy): not sufficient | Symptoms at daily dose of 0.5 mg ([2]; Patient 4, prior to the removal of their ovaries): symptom free | Effective dose compared with patients who had not had ovaries removed ([2]; Patients 3 and 4): higher | Dose required to overcome the reduction of MMC/hour in fed rats ([3]; ovariectomized female rats): 100 ug/100 g body weight | Migrating Motor Complexes, L-Fasted ([3]; 2 μg/100 g body weight, control 3.86 + 0.14, mean + SEM): 4.40 + 0.16 MMC/hour | Migrating Motor Complexes, L-Fed ([3]; 2 μg/100 g body weight, control 0): 0 MMC/hour | Migrating Motor Complexes, L-Fasted ([3]; 20 μg/100 g body weight, control 5.17 + 0.31, mean + SEM): 5.40 + 0.15 MMC/hour | Migrating Motor Complexes, L-Fed ([3]; 20 μg/100 g body weight, control 0): 0 MMC/hour | Migrating Motor Complexes, L-Fasted ([3]; 40 μg/100 g body weight, control 4.50 + 0.22, mean + SEM): 5.23 + 0.41 MMC/hour | Migrating Motor Complexes, L-Fed ([3]; 40 μg/100 g body weight, control 0.88 + 0.58): 0 MMC/hour | Migrating Motor Complexes, L-Fasted ([3]; 100 μg/100 g body weight, control 4.00 + 0.17, mean + SEM): 5.00 + 0.41 MMC/hour | Migrating Motor Complexes, L-Fed ([3]; 100 μg/100 g body weight, control 0, mean + SEM): 4.50 + 0.34 MMC/hour | Migrating Motor Complexes, L-Fasted ([3]; 250 μg/100 g body weight, control 4.50 + 0.22, mean + SEM): 4.50 + 0.29 MMC/hour | Migrating Motor Complexes, L-Fed ([3]; 250 μg/100 g body weight, control 0.88 + 0.58, mean + SEM): 5.00 + 0.58 MMC/hour | Eating and body weight at discharge (end-stage scleroderma): eating without difficulty, and had gained weight | Need for TPN feeding after five weeks of therapy (end-stage scleroderma): did not require the TPN feeding | Mobility after five weeks of therapy (end-stage scleroderma; bed-ridden before): able to move about actively
